The nature of data set [1]: Solubility of peracetylated cyclodextrins in HFA propellants, assessed visually. The format is physicochemical. The settings on record: equilibrated one week, visual; for solubility in HFA 134a: room temperature; for solubility in HFA 227: HFA 227, room temperature. The method, then:
The solubility of peracetylated cyclodextrins (alpha, beta and gamma) in HFA propellants was assessed visually in clear PET vials crimped with a continuous pMDI valve. Known amounts of cyclodextrins were weighed into the PET vials. Continuous valves were crimped on the vial, and HFAs were added under pressure to the required amount. The samples were left to equilibrate over one week and were visually inspected. The solubility of the modified cyclodextrin at room temperature was evaluated by discriminating between samples that were clear by opposition to those samples that still had solid particles in suspension.

Data set [2] can be described thus: Efficacy of peracetylated beta cyclodextrin as HFA drug suspension stabiliser (phase separation recorded photographically). It is filed as physicochemical. The settings on record: peracetylated β cyclodextrin at saturation level, phase separation much slower, suspension much finer, head space adhesion less. The method, then: First, reference samples of pure drugs in HFAs were prepared. Then samples with solubilised peracetylated beta (β) cyclodextrin and micronised drug were prepared. The concentration of drug in these samples was the same as in the reference samples. The cyclodextrin concentration was at saturation level.
The reference samples (pure drug) were prepared by weighing the drug in a PET vial. A valve was then crimped on the vial and propellant added under pressure. The vial was then sonicated for at least 15 minutes and left to equilibrate for one week.
The drug—cyclodextrin samples were prepared by weighing a known amount of drug in a PET vial. The vial was then crimped with a continuous valve. The solution of peracetylated beta (β) cyclodextrin was prepared thus: a large amount of cyclodextrin was placed in large metallic can, it was crimped and filled with one of the propellants. This can was left to equilibrate for at least a week at room temperature. When equilibration was reached, the saturated cyclodextrin solution was filtered through a […] PTFE filter into the PET vials containing the known drug amounts. This way the maximum amount of soluble cyclodextrin was used in the suspensions. The concentration of drugs in the vials was then calculated through accurate recording of the weights of propellant/cyclodextrin added.
The phase separation phenomenon present in both samples (pure drug and with the cyclodextrin) was then recorded photographically.

For the compound `CC(=O)OCC1OC2OC3C(COC(C)=O)OC(OC4C(COC(C)=O)OC(OC5C(COC(C)=O)OC(OC6C(COC(C)=O)OC(OC7C(COC(C)=O)OC(OC1C(OC(C)=O)C2OC(C)=O)C(OC(C)=O)C7OC(C)=O)C(OC(C)=O)C6OC(C)=O)C(OC(C)=O)C5OC(C)=O)C(OC(C)=O)C4OC(C)=O)C(OC(C)=O)C3OC(C)=O` (stereo not drawn) [peracetylated alpha (α) cyclodextrin], in data set [1], the “solubility in HFA 134a” value is “above 1 % w/w” and the “solubility in HFA 227” value is listed as “above 0.5 % w/w”.

For `CC(C)(C)NCC(O)c1cc(O)cc(O)c1` (centres unmarked) [Terbutaline Sulphate], the “quality/stability of drug suspension with modified cyclodextrin versus pure drug sample” value was “much improved” in data set [2] (HFA 134a) and “far more stable” in data set [2] (HFA 227).

In the case of `CCCC1O[C@@H]2C[C@H]3[C@@H]4CCC5=CC(=O)C=C[C@]5(C)[C@H]4[C@@H](O)C[C@]3(C)[C@]2(C(=O)CO)O1` (some centres unmarked) [Budesonide], the figures for the “quality/stability of drug suspension with modified cyclodextrin versus pure drug sample” value in data set [2] (HFA 134a) and in data set [2] (HFA 227) were “improved” and “much improved”, respectively.

Consider peracetylated beta (β) cyclodextrin, for which, in data set [1], the “solubility in HFA 134a” value is listed as “above 1 % w/w” and the “solubility in HFA 227” value was “above 0.1 % w/w”.

The values are drawn from US20070104652A1, “Pharmaceutical spray formulation comprising a hydro fluor alkane and an acylated cyclodextrin” (priority 2003, published 2007).
